Values after ≈ are worked out from the molar mass of the structure shown. Where two headings read alike, the source gives them in different places.
Tests used:
[1] = biological target: T1, TrxR activity in HeLa cells (Homo sapiens, UniProt Q16881); assay: cell-based; settings: for inhibition of cellular TrxR activity: 12 h
T1 sequence (Q16881 1-499 isoform Q16881-5): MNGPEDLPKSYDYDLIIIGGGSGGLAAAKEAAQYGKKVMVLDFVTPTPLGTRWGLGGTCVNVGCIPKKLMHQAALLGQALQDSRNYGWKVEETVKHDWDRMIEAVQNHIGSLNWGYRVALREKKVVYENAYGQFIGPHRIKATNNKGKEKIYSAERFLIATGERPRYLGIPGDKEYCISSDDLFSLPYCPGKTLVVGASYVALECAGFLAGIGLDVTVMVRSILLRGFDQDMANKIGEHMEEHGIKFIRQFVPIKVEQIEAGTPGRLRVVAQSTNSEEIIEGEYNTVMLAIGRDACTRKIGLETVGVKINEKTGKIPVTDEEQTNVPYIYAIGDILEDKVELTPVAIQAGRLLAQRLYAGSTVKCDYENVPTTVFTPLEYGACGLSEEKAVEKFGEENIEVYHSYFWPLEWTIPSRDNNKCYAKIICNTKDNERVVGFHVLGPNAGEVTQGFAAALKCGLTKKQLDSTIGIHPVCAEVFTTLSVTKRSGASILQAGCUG

HeLa cells = assay: Cell viability MTS assay; assay type: cell-based, human; settings: 2 and 3 μM selenite
rat TrxR [2] = biological target: T2, rat TrxR (Rattus norvegicus, UniProt O89049)
T2 sequence (O89049 1-499): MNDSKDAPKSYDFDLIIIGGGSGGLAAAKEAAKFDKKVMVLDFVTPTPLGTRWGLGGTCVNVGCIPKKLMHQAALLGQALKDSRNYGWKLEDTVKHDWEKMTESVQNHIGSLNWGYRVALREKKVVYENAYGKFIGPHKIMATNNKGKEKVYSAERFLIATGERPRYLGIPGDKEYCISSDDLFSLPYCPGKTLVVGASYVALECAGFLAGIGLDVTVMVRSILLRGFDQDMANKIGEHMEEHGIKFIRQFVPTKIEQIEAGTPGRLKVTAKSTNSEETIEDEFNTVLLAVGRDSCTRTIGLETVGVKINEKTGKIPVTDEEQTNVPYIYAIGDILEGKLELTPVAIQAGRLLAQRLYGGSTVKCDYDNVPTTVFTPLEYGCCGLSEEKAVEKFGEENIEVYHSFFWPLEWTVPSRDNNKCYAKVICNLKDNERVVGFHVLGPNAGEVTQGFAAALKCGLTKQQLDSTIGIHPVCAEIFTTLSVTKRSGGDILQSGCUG

rat TrxR [3] = biological target: T2, rat TrxR; assay: biochemical
[4] = biological target: T3, Gpx from bovine erythrocytes (Bos taurus, UniProt P00435); assay type: biochemical
T3 sequence (P00435 1-205): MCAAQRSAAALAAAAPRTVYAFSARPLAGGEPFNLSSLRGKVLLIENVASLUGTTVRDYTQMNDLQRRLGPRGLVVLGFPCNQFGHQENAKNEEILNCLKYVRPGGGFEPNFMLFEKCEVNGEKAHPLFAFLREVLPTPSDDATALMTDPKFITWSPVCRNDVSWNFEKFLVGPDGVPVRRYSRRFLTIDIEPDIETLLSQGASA

[5] = biological target: T4, TrxR C-terminus active site Sec and Cys (Rattus norvegicus, UniProt O89049)
T4 sequence (O89049 1-499): T2 sequence (O89049 1-499)

TrxR = settings: cited from earlier work
HeLa = settings: three day continuous treatment; cited from earlier work
GR = settings: cited from earlier work
[6] = HeLa, read-out: inhibition of cellular TrxR activity

C[S+]([O-])CCCCN=C=S (stereo not shown) [sulforaphane, reference compound]
effect in preliminary Se plus sulforaphane TrxR co-induction tests ([1]; HeLa cells, data not shown): potentially confounding direct inhibitory properties

O=[Se]([O-])[O-].[Na+].[Na+] [selenite, sodium selenite]
cytotoxicity of added selenite (cells detached from culture dish) (HeLa cells): caused cytotoxicity

CC1=CC2=C(C)C3(CC3)[C@@](C)(O)C(=O)C2=C1 [AF, acylfulvene]
inhibition at 0.2 µM [1, 6]: 20% | inhibition at 1 µM [1, 6]: 35% | inhibition at 4 µM [1, 6]: 60% | reversibility of TrxR inhibition (gel filtration) (rat TrxR [2]): irreversible | IC50 (rat TrxR [3]): 7.3 µM | inhibition at 50 µM (rat TrxR [3]; read-out: TrxR activity inhibited within five minutes): > 60% | drug concentration at which an increase in Gpx activity was observed [4]: ≥ 20 µM | intensity of BIAM label ([5]; pH 6.5): diminished in intensity | BIAM labeling ([5]; pH 8.5): almost abolished

NC(=O)CI [IAA, iodoacetamide]
IC50 ([4]; read-out: IC50, inhibition of Gpx activity): 2400 µM

CC1=C2C(=C[C@@](C)(CO)[C@@H]2O)C(=O)[C@](C)(O)C12CC2 [illudin S, reference compound]
inhibition at 0.2 µM [1, 6]: 20% | inhibition at 1 µM [1, 6]: 50% | inhibition of TrxR without pre-reduction (rat TrxR [2]): no inhibition was observed | IC50 (rat TrxR [3]): 260 µM | drug concentration at which an increase in Gpx activity was observed [4]: ≥ 1000 µM | effect on Gpx activity [4]: none of the tested drugs caused a decrease in enzyme activity

O=C(O)CCCc1ccc(N(CCCl)CCCl)cc1 [chlorambucil]
IC50, TrxR inhibition (TrxR): micromolar

N[C@@H](Cc1ccc(N(CCCl)CCCl)cc1)C(=O)O [melphalan]
IC50, TrxR inhibition (TrxR): micromolar

CC1=C(CO)C2=C(C)C3(CC3)[C@@](C)(O)C(=O)C2=C1 [HMAF, hydroxymethylacylfulvene]
IC50, cytotoxicity (HeLa): 0.02 µg/mL (≈ 0.0812 µM) | inhibition of cellular TrxR activity ([1]; HeLa cells, 0.2 μM): 20% | inhibition of cellular TrxR activity ([1]; HeLa cells, 1 μM): 60% | inhibition of cellular TrxR activity ([1]; HeLa cells, 4 μM): eliminated cellular TrxR activity | type of GR inhibition (GR): irreversible | TrxR activity inhibited within five minutes (rat TrxR [2]; 7.5 μM HMAF, pre-reduced TrxR, 25 °C): over 60% | reversibility of TrxR inhibition (gel filtration) (rat TrxR [2]; 2 h reaction, unbound drug removed by size exclusion column): irreversible | IC50 (rat TrxR [2]; read-out: IC50, inhibition of DTNB reduction activity of TrxR, NADPH-reduced TrxR (80 nM), 2 h at 25 °C): 0.38 µM | drug concentration at which an increase in Gpx activity was observed [4]: ≥ 2 µM | intensity of BIAM label ([5]; pH 6.5 (free Sec), 5 μM HMAF): diminished in intensity | BIAM labeling ([5]; pH 8.5 (free Cys and Sec), 25 μM HMAF): almost abolished

Source: publication PMC3210965 (Chemical research in toxicology, 2011)
